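Tested at 5 concentrations; 48 h exposure; 96-well plates; endpoints linearly interpolated, else capped at highest concentration. Abbreviation: GI50, concentration required for 50% inhibition of growth.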 Active and inactive are the calls of the source. Rule as the data show it: active = GI50 up to about 1.1 µM and inactive = higher.
What was measured:
Experiment in all cases: NCI tumour cell line growth inhibition, 48 h
HOP-62 = test system: HOP-62
HL-60 = test system: HL-60
TK-10 = test system: TK-10
MDA-MB-231 = test system: MDA-MB-231
OVCAR-8 = test system: OVCAR-8
NCI-H226 = test system: NCI-H226
U-251 = test system: U-251
SK-MEL-28 = test system: SK-MEL-28
MOLT-4 = test system: MOLT-4
MDA-MB-435 = test system: MDA-MB-435
CCRF-CEM = test system: CCRF-CEM
HCT-15 = test system: HCT-15
M14 = test system: M14
KM12 = test system: KM12
IGROV-1 = test system: IGROV-1
K562 = test system: K562
RPMI-8226 = test system: RPMI-8226
SN12C = test system: SN12C
SK-MEL-2 = test system: SK-MEL-2
UO-31 = test system: UO-31

Row | SMILES | GI50 (HOP-62) | GI50 (HL-60) | GI50 (TK-10) | GI50 (MDA-MB-231) | GI50 (OVCAR-8) | GI50 (NCI-H226) | GI50 (U-251) | GI50 (SK-MEL-28) | GI50 (MOLT-4) | GI50 (MDA-MB-435) | GI50 (CCRF-CEM) | GI50 (HCT-15) | GI50 (M14) | GI50 (KM12) | GI50 (IGROV-1) | GI50 (K562) | GI50 (RPMI-8226) | GI50 (SN12C) | GI50 (SK-MEL-2) | GI50 (UO-31)
1 | CCCCCCCCCCCCCCCCCC(=O)OCC(COC1OC(COP(=O)(O)O)C(O)C(O)C1O)OC(=O)CCCCCCCCCCCCCCCCC (configuration not stated) | 8.26 µM (inactive) | 12.4 µM (inactive) | 10.4 µM (inactive) | 3.04 µM (inactive) | 7.35 µM (inactive) | 4.21 µM (inactive) | 6.71 µM (inactive) | 9.98 µM (inactive) | 7.5 µM (inactive) | 9.71 µM (inactive) | 4.95 µM (inactive) | 7.52 µM | 9.14 µM (inactive) | 6.27 µM (inactive) | 4.02 µM (inactive) | 9.89 µM (inactive) | 13.6 µM (inactive) | 7 µM (inactive) |  | 
2 | COc1ccc2c(=O)c(-c3cc4c(cc3OC)OCO4)coc2c1 | 41.9 µM (inactive) | > 100 µM (inactive) | 56.1 µM (inactive) | 61.5 µM (inactive) | 55.2 µM (inactive) | > 100 µM (inactive) | 59.2 µM (inactive) | > 100 µM (inactive) | > 100 µM (inactive) |  | > 100 µM (inactive) | > 100 µM | > 100 µM (inactive) | > 100 µM (inactive) | 58.9 µM (inactive) |  | > 100 µM (inactive) | > 100 µM (inactive) | > 100 µM (inactive) | > 100 µM (inactive)
3 | C[C@@H](c1ccccc1)n1c(N)c(-c2ccccn2)c2ccc([N+](=O)[O-])cc2c1=O |  | 52.4 µM (inactive) | 31.2 µM (inactive) | 86.3 µM (inactive) | 51.2 µM (inactive) | 36.6 µM (inactive) | 47.5 µM (inactive) | > 100 µM (inactive) |  | 92.7 µM (inactive) | 32.1 µM (inactive) | 86.1 µM |  | 67.9 µM (inactive) |  |  |  | 98.2 µM (inactive) | > 100 µM (inactive) | 14.5 µM (inactive)
4 | COc1ccc2c(c1)/C(=C\c1c(Cl)nc3n1CCS3)C(=O)N2 | 6.35 µM (inactive) | 3.58 µM (inactive) | 5 µM (inactive) | 5.14 µM (inactive) | 19.7 µM (inactive) |  | 5.37 µM (inactive) | 18.7 µM (inactive) | 4.01 µM (inactive) | 1.29 µM (inactive) | 6.31 µM (inactive) | 3.84 µM | 7.5 µM (inactive) | 2.62 µM (inactive) | 7.28 µM (inactive) | 3.02 µM (inactive) | 4.03 µM (inactive) | 10.8 µM (inactive) |  | 5.86 µM (inactive)
5 | Cc1cc2c(c3oc(C4(C)OC4C4OC4C)cc(=O)c13)C(=O)c1c(O)c(C3CC(C)(N(C)C)C(O)C(C)O3)cc(C3CC(N(C)C)C(O)C(C)O3)c1C2=O (configuration not stated) | 5.79e-05 µM (active) | 0.0025 µM (active) | 0.000197 µM (active) | 0.000227 µM (active) | 0.0025 µM (active) |  | 4.1e-05 µM (active) |  | 0.0025 µM (active) | 9.23e-05 µM (active) | 0.0025 µM (active) |  | 8.26e-05 µM (active) |  | 0.000951 µM (active) | 0.0025 µM (active) | 0.000271 µM (active) | 0.000136 µM (active) |  | 0.000557 µM (active)
6 | Cc1cc2nn(C3CCCCO3)nc2cc1C (configuration not stated) | > 100 µM (inactive) |  | > 100 µM (inactive) | > 100 µM (inactive) | > 100 µM (inactive) | > 100 µM (inactive) | > 100 µM (inactive) |  | > 100 µM (inactive) | > 100 µM (inactive) | > 100 µM (inactive) | > 100 µM | > 100 µM (inactive) | > 100 µM (inactive) | > 100 µM (inactive) | > 100 µM (inactive) |  | > 100 µM (inactive) | > 100 µM (inactive) | 75.7 µM (inactive)
7 | O=C(O)C1CSC2(CCCN(Cc3ccccc3)C2)N1 (configuration not stated) | > 100 µM (inactive) | > 100 µM (inactive) | > 100 µM (inactive) | > 100 µM (inactive) | > 100 µM (inactive) | > 100 µM (inactive) | > 100 µM (inactive) | > 100 µM (inactive) | > 20.7 µM (inactive) | > 76.7 µM (inactive) | 23.4 µM (inactive) | > 100 µM | > 100 µM (inactive) | > 100 µM (inactive) | > 100 µM (inactive) | > 28.8 µM (inactive) |  | > 100 µM (inactive) | > 100 µM (inactive) | > 100 µM (inactive)
8 | COc1ccc2[nH]c3c([N+](=O)[O-])ccc(NCCN(C)C)c3/c(=N/CCN(C)C)c2c1 | 0.695 µM (active) | 1.31 µM (inactive) | 3.13 µM (inactive) | 1.28 µM (inactive) | 0.634 µM (active) |  |  | 2.26 µM (inactive) | 0.172 µM (active) | 1.63 µM (inactive) | 0.237 µM (active) | 1.31 µM | > 10 µM (inactive) | 1.26 µM (inactive) | 1.91 µM (inactive) | 1.22 µM (inactive) | 0.421 µM (active) | 1.37 µM (inactive) |  | 
9 | c1ccc(/N=C(/Nc2ccccc2)N2CCCCC2)cc1 | > 100 µM (inactive) | 24.7 µM (inactive) | > 100 µM (inactive) |  | > 100 µM (inactive) | > 100 µM (inactive) | > 100 µM (inactive) | 74 µM (inactive) | 51.5 µM (inactive) | 41.6 µM (inactive) | > 100 µM (inactive) | > 100 µM | 22.3 µM (inactive) | 72.1 µM (inactive) | 93.5 µM (inactive) | 40 µM (inactive) | 97.9 µM (inactive) | > 100 µM (inactive) | > 100 µM (inactive) | 49.3 µM (inactive)
10 | O=C1c2c(Br)sc(Br)c2[C@H]2NC(=S)O[C@@H]12 | 18 µM (inactive) |  | 29.6 µM (inactive) | 17.9 µM (inactive) | 9.82 µM (inactive) | 20.7 µM (inactive) | 13.2 µM (inactive) | 13.2 µM (inactive) | 1.32 µM (inactive) | 13.8 µM (inactive) | 2.15 µM (inactive) | 4.18 µM | 14.3 µM (inactive) | 17.9 µM (inactive) | 16.7 µM (inactive) | 2.98 µM (inactive) | 7.38 µM (inactive) | 17.6 µM (inactive) | 17.4 µM (inactive) | 15.3 µM (inactive)
11 | O=C1CC2[C@@H](N3CCCC3)CCC(N1Cc1ccccc1)C2(O)O (some centres not stated) | > 100 µM (inactive) | > 100 µM (inactive) | > 100 µM (inactive) | > 100 µM (inactive) | > 100 µM (inactive) | > 100 µM (inactive) | > 100 µM (inactive) | > 100 µM (inactive) | > 100 µM (inactive) | > 100 µM (inactive) | > 100 µM (inactive) | > 100 µM | > 100 µM (inactive) | > 100 µM (inactive) | > 100 µM (inactive) | > 100 µM (inactive) |  | > 100 µM (inactive) |  | > 100 µM (inactive)
12 | O=C(O)C1SCCS1 | > 100 µM (inactive) | > 100 µM (inactive) | > 100 µM (inactive) | > 100 µM (inactive) | > 100 µM (inactive) | > 100 µM (inactive) | > 100 µM (inactive) | > 100 µM (inactive) | > 100 µM (inactive) | > 100 µM (inactive) | > 100 µM (inactive) | > 100 µM | > 100 µM (inactive) |  | > 100 µM (inactive) | > 100 µM (inactive) | > 100 µM (inactive) | > 100 µM (inactive) |  | > 100 µM (inactive)
13 | SC1=NNC2(C(Cl)=N1)c1ccccc1-c1ccccc12 | > 10 µM (inactive) | > 10 µM (inactive) | > 10 µM (inactive) | > 10 µM (inactive) | > 10 µM (inactive) | > 10 µM (inactive) | > 10 µM (inactive) | > 10 µM (inactive) | > 10 µM (inactive) |  | > 10 µM (inactive) | > 10 µM | > 10 µM (inactive) | > 10 µM (inactive) | > 10 µM (inactive) | > 10 µM (inactive) | > 10 µM (inactive) | > 10 µM (inactive) |  | 6.44 µM (inactive)
14 | CC(=O)/C(=C/c1ccccc1F)C(=O)c1ccccc1 | 35.2 µM (inactive) | 21.4 µM (inactive) | 24.4 µM (inactive) | 26.1 µM (inactive) | 21.6 µM (inactive) | 76.4 µM (inactive) | 29.6 µM (inactive) | 53.2 µM (inactive) | 2.19 µM (inactive) | 37.9 µM (inactive) |  | 27.7 µM | 56 µM (inactive) | 30.9 µM (inactive) | 44.2 µM (inactive) |  | 18.3 µM (inactive) | 37.2 µM (inactive) | 27.5 µM (inactive) | 34.1 µM (inactive)
15 | O=[N+]([O-])c1ccc(Cl)cc1N/N=C/c1cccs1 | > 100 µM (inactive) | > 100 µM (inactive) | > 100 µM (inactive) | > 100 µM (inactive) | > 100 µM (inactive) | 38.5 µM (inactive) | > 100 µM (inactive) | > 100 µM (inactive) | > 100 µM (inactive) | > 100 µM (inactive) | > 100 µM (inactive) | > 100 µM | > 100 µM (inactive) | > 100 µM (inactive) | > 100 µM (inactive) | > 100 µM (inactive) | > 100 µM (inactive) | > 100 µM (inactive) |  | > 100 µM (inactive)
16 | CC1(C)SC2C(NC(=O)Cc3ccccc3)C(=O)N2C1C(=O)O (configuration not stated) | > 100 µM (inactive) | > 100 µM (inactive) | > 100 µM (inactive) | > 100 µM (inactive) | > 100 µM (inactive) | 34 µM (inactive) | > 100 µM (inactive) | > 100 µM (inactive) | > 100 µM (inactive) | > 100 µM (inactive) |  | > 100 µM | > 100 µM (inactive) | > 100 µM (inactive) | > 100 µM (inactive) | > 100 µM (inactive) |  | > 100 µM (inactive) | > 100 µM (inactive) | > 100 µM (inactive)

— ChEMBL document CHEMBL1201862, “PubChem BioAssay data set” (2004)
